Results taken from ChEMBL document CHEMBL5030545, “Discovery of clinical candidate Sivopixant (S-600918): Lead optimization of dioxotriazine derivatives as selective P2X3 receptor antagonists” (Bioorg Med Chem Lett, 2021).
Values after ≈ are worked out from the molar mass of the structure shown.

Experiments:
[1] = biological target: T1, P2X purinoceptor 1 (Homo sapiens, UniProt P51575); assay: Antagonist activity at P2X1 receptor (unknown origin)
T1 sequence (P51575 whole entry): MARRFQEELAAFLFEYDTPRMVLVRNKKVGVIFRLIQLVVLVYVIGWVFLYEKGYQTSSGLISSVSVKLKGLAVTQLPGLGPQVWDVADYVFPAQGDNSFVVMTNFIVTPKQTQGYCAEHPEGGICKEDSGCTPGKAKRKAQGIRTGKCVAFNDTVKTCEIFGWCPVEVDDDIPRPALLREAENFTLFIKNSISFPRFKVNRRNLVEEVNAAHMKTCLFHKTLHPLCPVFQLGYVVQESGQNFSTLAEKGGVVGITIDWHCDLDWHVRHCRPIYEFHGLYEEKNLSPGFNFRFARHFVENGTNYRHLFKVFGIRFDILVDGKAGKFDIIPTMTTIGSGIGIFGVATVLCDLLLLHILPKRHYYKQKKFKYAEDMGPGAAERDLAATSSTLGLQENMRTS

[2] = biological target: T2, P2X purinoceptor 7 (Homo sapiens, UniProt Q99572); assay: Antagonist activity at P2X7 receptor (unknown origin)
T2 sequence (Q99572 whole entry): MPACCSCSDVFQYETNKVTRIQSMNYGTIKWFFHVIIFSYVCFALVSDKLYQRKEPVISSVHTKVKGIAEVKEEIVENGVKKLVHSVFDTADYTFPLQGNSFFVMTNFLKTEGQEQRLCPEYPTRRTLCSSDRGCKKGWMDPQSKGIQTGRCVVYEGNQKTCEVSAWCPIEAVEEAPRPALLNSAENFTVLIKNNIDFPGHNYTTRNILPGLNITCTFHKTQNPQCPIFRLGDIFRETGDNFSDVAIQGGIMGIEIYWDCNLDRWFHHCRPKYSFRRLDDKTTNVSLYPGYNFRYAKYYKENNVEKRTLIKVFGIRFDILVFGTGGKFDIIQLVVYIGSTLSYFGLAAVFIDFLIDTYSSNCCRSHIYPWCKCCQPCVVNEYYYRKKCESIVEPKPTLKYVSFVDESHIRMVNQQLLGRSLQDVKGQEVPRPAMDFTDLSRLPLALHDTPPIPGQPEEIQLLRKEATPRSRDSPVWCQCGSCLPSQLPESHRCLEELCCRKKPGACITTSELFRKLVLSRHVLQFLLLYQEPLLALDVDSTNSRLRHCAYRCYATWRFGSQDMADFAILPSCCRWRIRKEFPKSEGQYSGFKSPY

[3] = Oral bioavailability in rat at 3 mg/kg; format: ADME, organism-based; conditions: in vivo
[4] = biological target: Cytochrome P450 3A4 (Homo sapiens, UniProt P08684); assay: Inhibition of CYP3A4 (unknown origin); format: ADME
Sequence of Cytochrome P450 3A4 (P08684 whole entry): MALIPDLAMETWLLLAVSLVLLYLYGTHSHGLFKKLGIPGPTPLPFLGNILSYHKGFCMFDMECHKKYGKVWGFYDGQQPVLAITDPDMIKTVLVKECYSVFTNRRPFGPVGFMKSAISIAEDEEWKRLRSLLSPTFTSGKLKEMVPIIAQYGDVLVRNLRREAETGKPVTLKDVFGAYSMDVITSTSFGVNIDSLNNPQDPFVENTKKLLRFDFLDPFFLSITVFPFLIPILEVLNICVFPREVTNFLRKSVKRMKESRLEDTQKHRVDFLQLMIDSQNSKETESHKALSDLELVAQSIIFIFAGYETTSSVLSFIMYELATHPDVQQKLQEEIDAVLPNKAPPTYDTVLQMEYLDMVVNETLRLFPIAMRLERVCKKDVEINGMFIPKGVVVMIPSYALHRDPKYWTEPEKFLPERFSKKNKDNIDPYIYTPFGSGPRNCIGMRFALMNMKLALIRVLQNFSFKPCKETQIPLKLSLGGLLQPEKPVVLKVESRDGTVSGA

[5] = Oral bioavailability in rat at 1 mg/kg administered as cassette dose; format: ADME, organism-based; conditions: in vivo
[6] = Ratio of plasma concentration in rat measured after 3 hrs to IC50 of P2X3 (unknown origin); format: ADME; conditions: in vivo
[7] = system: Rattus norvegicus; assay: Analgesic activity in rat model of partial sciatic nerve ligation-induced neuropathic pain assessed as maximum efficacy at 3 mg/kg, po relative to control; format: functional
[8] = Clearance in rat at 1 mg/kg, iv; format: ADME, organism-based; conditions: in vivo
[9] = biological target: T3, P2X purinoceptor 4 (Homo sapiens, UniProt Q99571); assay: Antagonist activity at P2X4 receptor (unknown origin)
T3 sequence (Q99571 whole entry): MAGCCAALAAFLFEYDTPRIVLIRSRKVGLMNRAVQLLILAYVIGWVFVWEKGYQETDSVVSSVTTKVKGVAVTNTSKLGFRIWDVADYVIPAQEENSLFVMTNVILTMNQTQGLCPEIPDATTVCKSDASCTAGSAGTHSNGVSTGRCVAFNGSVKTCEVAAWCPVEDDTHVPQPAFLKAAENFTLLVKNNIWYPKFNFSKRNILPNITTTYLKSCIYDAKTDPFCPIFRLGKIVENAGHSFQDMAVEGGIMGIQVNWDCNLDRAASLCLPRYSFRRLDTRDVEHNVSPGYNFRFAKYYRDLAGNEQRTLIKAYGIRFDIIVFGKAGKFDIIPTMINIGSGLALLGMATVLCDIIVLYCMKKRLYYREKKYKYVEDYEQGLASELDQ

[10] = AUC in rat at 3 mg/kg, po; format: ADME, organism-based; design: dose 3 mg/kg; conditions: in vivo
[11] = system: Rattus norvegicus; assay: Analgesic activity in rat model of partial sciatic nerve ligation-induced neuropathic pain assessed as reversal of allodynia at 3 mg/kg, po measured after 3 hrs relative to control; format: functional
[12] = Solubility of the compound in JP2 fluid at pH 6.8; format: physicochemical
[13] = Protein binding in rat plasma assessed as unbound fraction at 1 mg/kg administered as cassette dose; format: ADME, organism-based
[14] = biological target: T4, Cytochrome P450 1A2 (Homo sapiens, UniProt P05177); assay: Inhibition of CYP1A2 (unknown origin); format: ADME
T4 sequence (P05177 whole entry): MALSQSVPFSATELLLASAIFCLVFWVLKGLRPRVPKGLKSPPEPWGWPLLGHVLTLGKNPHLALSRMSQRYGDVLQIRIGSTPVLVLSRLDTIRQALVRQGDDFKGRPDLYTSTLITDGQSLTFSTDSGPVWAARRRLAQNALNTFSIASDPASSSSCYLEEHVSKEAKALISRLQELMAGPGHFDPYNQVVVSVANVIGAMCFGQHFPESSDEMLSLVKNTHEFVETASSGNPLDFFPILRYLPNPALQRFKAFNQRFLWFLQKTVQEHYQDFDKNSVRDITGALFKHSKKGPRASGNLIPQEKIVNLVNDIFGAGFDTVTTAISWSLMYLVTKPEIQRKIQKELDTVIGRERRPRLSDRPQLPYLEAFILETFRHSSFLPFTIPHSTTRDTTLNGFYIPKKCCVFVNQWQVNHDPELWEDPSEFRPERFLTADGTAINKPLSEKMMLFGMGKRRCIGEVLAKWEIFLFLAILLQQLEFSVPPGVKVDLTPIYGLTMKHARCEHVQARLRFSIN

[15] = system: Rattus norvegicus; assay: Analgesic activity in po dosed rat model of partial sciatic nerve ligation-induced neuropathic pain; format: functional
[16] = biological target: T5, P2X purinoceptor 3 (Rattus norvegicus, UniProt P49654); assay: Antagonist activity at rat P2X3 receptor
T5 sequence (P49654 whole entry): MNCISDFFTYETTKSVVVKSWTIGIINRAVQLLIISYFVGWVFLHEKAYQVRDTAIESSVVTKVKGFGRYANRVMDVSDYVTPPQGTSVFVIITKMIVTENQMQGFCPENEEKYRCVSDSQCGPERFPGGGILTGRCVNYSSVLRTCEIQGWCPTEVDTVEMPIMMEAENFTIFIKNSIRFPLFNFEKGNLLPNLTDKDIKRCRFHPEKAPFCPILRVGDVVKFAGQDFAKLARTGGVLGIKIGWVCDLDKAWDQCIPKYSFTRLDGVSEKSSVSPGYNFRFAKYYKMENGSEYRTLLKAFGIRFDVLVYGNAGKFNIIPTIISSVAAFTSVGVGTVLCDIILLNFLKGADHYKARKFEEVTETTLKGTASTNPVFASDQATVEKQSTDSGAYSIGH

[17] = biological target: Cytochrome P450 2C9 (Homo sapiens, UniProt P11712); assay: Inhibition of CYP2C9 (unknown origin); format: ADME
Sequence of Cytochrome P450 2C9 (P11712 whole entry): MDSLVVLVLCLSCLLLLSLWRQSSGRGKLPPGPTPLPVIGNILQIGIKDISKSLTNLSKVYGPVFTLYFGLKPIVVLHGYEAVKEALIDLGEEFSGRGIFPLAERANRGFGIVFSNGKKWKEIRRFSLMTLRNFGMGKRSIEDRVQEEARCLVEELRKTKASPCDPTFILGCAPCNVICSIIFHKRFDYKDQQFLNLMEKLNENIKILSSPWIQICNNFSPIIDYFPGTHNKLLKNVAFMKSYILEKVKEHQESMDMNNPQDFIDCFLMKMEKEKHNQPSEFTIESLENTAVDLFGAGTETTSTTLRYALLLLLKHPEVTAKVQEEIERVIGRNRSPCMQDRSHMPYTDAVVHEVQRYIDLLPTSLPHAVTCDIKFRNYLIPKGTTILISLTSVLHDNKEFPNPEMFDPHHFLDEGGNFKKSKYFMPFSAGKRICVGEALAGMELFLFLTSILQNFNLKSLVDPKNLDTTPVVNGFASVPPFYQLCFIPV

[18] = Cmax in rat at 3 mg/kg, po; format: ADME, organism-based; design: route oral, dose 3 mg/kg; conditions: in vivo
[19] = Solubility of the compound in pH 1.2 JP1 fluid; format: physicochemical

With `C[C@@H](Cn1c(=O)[nH]/c(=N\c2ccc(Oc3ccccn3)cc2)n(Cc2ccc(Cl)cc2)c1=O)C(=O)O` as the compound, how does the IC50 [1] read?
Its IC50 is greater than 30 µM.

And the IC50 [2]?
Its IC50 is greater than 30 µM.

What about the bioavailability [3] of the same compound?
The bioavailability was 76.8%.

What about the IC50 [4] of the same compound?
The IC50 was greater than 20 µM.

What about the bioavailability [5] of the same compound?
The bioavailability was 52.8%.

What about the Ratio [6] of the same compound?
Its Ratio is 156.9.

And the Emax at 3 mg/kg [7]?
Its Emax at 3 mg/kg is 64%.

And the clearance [8]?
Its clearance is 2.7 mL/min/kg.

And the IC50 [9]?
The IC50 was greater than 30 µM.

What about the AUC [10] of the same compound?
Its AUC is 14000 ng·h/mL.

What about the Activity [11] of the same compound?
The Activity was 64%.

And the solubility [12]?
The solubility was 458 µg/mL (≈ 902 µM).

What about the fraction unbound [13] of the same compound?
The fraction unbound was 0.01.

And the IC50 [14]?
The IC50 was greater than 20 µM.

What about the ED50 [15] of the same compound?
The ED50 was 0.4 mg/kg.

And the IC50 [16]?
The IC50 was 0.004 µM.

What about the IC50 [17] of the same compound?
The IC50 was greater than 20 µM.

And the Cmax [18]?
Its Cmax is 1630 ng/mL.

What about the solubility [19] of the same compound?
Its solubility is 31.5 µg/mL (≈ 62 µM).
